# Where two headings read alike, the source gives them in different places.
# Assays:
# P. aeruginosa = assay: Broth microdilution MIC (Example 10); conditions: initial MIC testing
# B. cepacia = assay: Broth microdilution MIC (Example 10); conditions: initial MIC testing
# [1] = system: B. cepacia (cepacia complex); assay: MIC against CF bacterial strains (Example 5); assay type: cell-based; conditions: Burkholderia cepacia
# Protocol: A range of CF-isolated strains of Mycobacterium avium and Mycobacterium abscessus were included; which allows for understanding of the activity against non-tubercular Mycobacteria (NTM). Two distinct bismuth-thiol compounds were evaluated, including BisEDT and BisBDT. […] The CF-isolates of greater clinical relevance, including both M abscessus spp. and Burkholderia spp., were both consistently found to be much more susceptible to BisEDT and BisBDT.
# [2] = system: MABSC / M. abscessus biofilms; assay: Activity against CF-isolate biofilms; assay type: cell-based; conditions: AMT0130-8 (MABSC CF-isolate)
# C. parapsilosis = assay: Broth microdilution MIC, yeast (Example 11); assay type: cell-based
# C. tropicalis = assay: Broth microdilution MIC, yeast (Example 11); assay type: cell-based; conditions: Candida tropicalis, FLU^R
# Candida glabrata = assay: Broth microdilution antifungal susceptibility (Example 13); assay type: cell-based; conditions: Nakaseomyces glabratus
# Candida auris = assay: as above; assay type: cell-based; conditions: Candidozyma auris
# A. niger = assay: as above; assay type: cell-based; conditions: Aspergillus niger, ATCC29508; read-out: MIC0 48 hr
# [3] = system: vancomycin-intermediate Staphylococcus aureus (VISA); assay: Broth microdilution MIC (Example 12); conditions: Staphylococcus aureus
structure (smiles),measurement,setting,value
C[C@@H](O)[C@H]1C(=O)N2C(C(=O)O)=C(S[C@@H]3CN[C@H](C(=O)N(C)C)C3)[C@H](C)[C@H]12 [MEM],MIC,P. aeruginosa; P. aeruginosa isolate 103,1 µg/mL
same,MIC,"P. aeruginosa; P. aeruginosa isolate 1497 (TOB-R, AMK-R, CIP-I, AZT-R, COL-R)",0.06 µg/mL
same,MIC,"P. aeruginosa; P. aeruginosa isolate 1530 (TOB-R, AMK-R, CIP-R)",0.5 µg/mL
same,MIC,"P. aeruginosa; P. aeruginosa isolate 1553 (TOB-R, AMK-R, CIP-R)",0.5 µg/mL
same,MIC,"P. aeruginosa; P. aeruginosa isolate 6322 (MEM-R, TOB-R, AMK-R, CIP-R, AZT-R)",16 µg/mL
same,MIC,"P. aeruginosa; P. aeruginosa isolate 6977 (MEM-I, TOB-R, CIP-R, AZT-I)",4 µg/mL
same,MIC,"P. aeruginosa; P. aeruginosa isolate 7745 (MEM-R, CIP-R, AZT-R)",16 µg/mL
same,MIC,"P. aeruginosa; P. aeruginosa isolate 7754 (MEM-R, TOB-R, CIP-R, AZT-I)",32 µg/mL
same,MIC,"P. aeruginosa; P. aeruginosa isolate 7762 (MEM-I, CIP-I)",4 µg/mL
same,MIC,"P. aeruginosa; P. aeruginosa isolate 7871 (MEM-R, AZT-I)",8 µg/mL
same,MIC,P. aeruginosa; P. aeruginosa isolate 7874,1 µg/mL
same,MIC,"P. aeruginosa; P. aeruginosa isolate 7886 (MEM-R, CIP-R, AZT-R)",32 µg/mL
same,MIC,"P. aeruginosa; P. aeruginosa isolate 8797 (MEM-R, TOB-R, AMK-R, CIP-R, AZT-R, COL-R)",32 µg/mL
same,MIC,"P. aeruginosa; P. aeruginosa isolate 8798 (MEM-R, TOB-R, AMK-R, CIP-R, AZT-R, COL-R)",64 µg/mL
same,MIC,"P. aeruginosa; P. aeruginosa isolate 9108 (CIP-R, AZT-I)",0.5 µg/mL
same,MIC,B. cepacia; B. cepacia isolate 0546,4 µg/mL
same,MIC,B. cepacia; B. cepacia isolate 0547,2 µg/mL
same,MIC,B. cepacia; B. cepacia isolate 1793,4 µg/mL
same,MIC,B. cepacia; B. cepacia isolate 1794,4 µg/mL
same,MIC,B. cepacia; B. cepacia isolate 9040,4 µg/mL
"CC(S)C(C)S.[Bi] (stereo not shown) [BisBDT, bismuth-2,3-butanedithiol]",MIC,[1]; strain BC17,8 µg/mL
same,MIC,"[1]; strain BC 17, CF isolate, beta lactam-R, TMP/SMX-R, FQ-R",4 µg/mL
same,reduction in biofilm cell viability,[2],only very modest reductions
same,MIC,"C. parapsilosis; C. parapsilosis MMX 7555, FLU^R, 24 hr",0.25 µg/mL
same,MIC,"C. parapsilosis; C. parapsilosis MMX 7555, FLU^R, 48 hr",0.5 µg/mL
same,MIC,"C. parapsilosis; Lodderomyces parapsilosis, 24 h",0.25 µg/mL
same,MIC,"C. parapsilosis; Lodderomyces parapsilosis, 48 h",0.5 µg/mL
same,MIC,"C. parapsilosis; Lodderomyces parapsilosis, ATCC22019, 24 h",0.5 µg/mL
same,MIC,"C. parapsilosis; Lodderomyces parapsilosis, ATCC22019, 48 h",1 µg/mL
same,MIC,"C. tropicalis; 24 h, C. tropicalis MMX 7247",4 µg/mL
same,MIC,"C. tropicalis; 24 h, C. tropicalis MMX 7248",4 µg/mL
same,MIC,"C. tropicalis; 24 h, C. tropicalis MMX 7360",2 µg/mL
same,MIC,"C. tropicalis; 48 h, C. tropicalis MMX 7247",4 µg/mL
same,MIC,"C. tropicalis; 48 h, C. tropicalis MMX 7248",8 µg/mL
same,MIC,"C. tropicalis; 48 h, C. tropicalis MMX 7360",2 µg/mL
same,MIC,"Candida glabrata; ATCC90030, read-out: MIC0 (complete inhibition), isolate ATCC 90030 (Susceptible)",1 µg/mL
same,MIC,"Candida glabrata; ATCC90030, read-out: MIC2 (50% inhibition), isolate ATCC 90030 (Susceptible)",0.5 µg/mL
same,MIC,"Candida glabrata; read-out: MIC0 (complete inhibition), isolate ATCC MYA-2950 (Susceptible)",1 µg/mL
same,MIC,"Candida glabrata; read-out: MIC0 (complete inhibition), isolate MMX 7087 (Susceptible)",1 µg/mL
same,MIC,"Candida glabrata; read-out: MIC0 (complete inhibition), isolate MMX 7093 (FLU-R)",2 µg/mL
same,MIC,"Candida glabrata; read-out: MIC0 (complete inhibition), isolate MMX 7101 (FLU-R)",1 µg/mL
same,MIC,"Candida glabrata; read-out: MIC0 (complete inhibition), isolate MMX 7103 (CASP-R, MICA-R)",1 µg/mL
same,MIC,"Candida glabrata; read-out: MIC0 (complete inhibition), isolate MMX 7111 (Susceptible)",1 µg/mL
same,MIC,"Candida glabrata; read-out: MIC0 (complete inhibition), isolate MMX 7285 (CASP-R, MICA-R)",0.5 µg/mL
same,MIC,"Candida glabrata; read-out: MIC0 (complete inhibition), isolate MMX 7307 (CASP-R, MICA-R, FLU-R)",1 µg/mL
same,MIC,"Candida glabrata; read-out: MIC0 (complete inhibition), isolate MMX 7549 (Susceptible)",1 µg/mL
same,MIC,"Candida glabrata; read-out: MIC2 (50% inhibition), isolate ATCC MYA-2950 (Susceptible)",0.5 µg/mL
same,MIC,"Candida glabrata; read-out: MIC2 (50% inhibition), isolate MMX 7087 (Susceptible)",0.5 µg/mL
same,MIC,"Candida glabrata; read-out: MIC2 (50% inhibition), isolate MMX 7093 (FLU-R)",1 µg/mL
same,MIC,"Candida glabrata; read-out: MIC2 (50% inhibition), isolate MMX 7101 (FLU-R)",0.5 µg/mL
same,MIC,"Candida glabrata; read-out: MIC2 (50% inhibition), isolate MMX 7103 (CASP-R, MICA-R)",0.5 µg/mL
same,MIC,"Candida glabrata; read-out: MIC2 (50% inhibition), isolate MMX 7111 (Susceptible)",0.5 µg/mL
same,MIC,"Candida glabrata; read-out: MIC2 (50% inhibition), isolate MMX 7285 (CASP-R, MICA-R)",0.25 µg/mL
same,MIC,"Candida glabrata; read-out: MIC2 (50% inhibition), isolate MMX 7307 (CASP-R, MICA-R, FLU-R)",0.5 µg/mL
same,MIC,"Candida glabrata; read-out: MIC2 (50% inhibition), isolate MMX 7549 (Susceptible)",0.5 µg/mL
same,MIC,"Candida auris; read-out: MIC0 (complete inhibition), isolate MMX 9862 (Susceptible)",1 µg/mL
same,MIC,"Candida auris; read-out: MIC0 (complete inhibition), isolate MMX 9863 (FLU-R, VORI-R)",2 µg/mL
same,MIC,"Candida auris; read-out: MIC0 (complete inhibition), isolate MMX 9864 (FLU-R, VORI-R)",1 µg/mL
same,MIC,"Candida auris; read-out: MIC0 (complete inhibition), isolate MMX 9865 (FLU-R, VORI-R)",2 µg/mL
same,MIC,"Candida auris; read-out: MIC0 (complete inhibition), isolate MMX 9866 (FLU-R, VORI-R)",2 µg/mL
same,MIC,"Candida auris; read-out: MIC0 (complete inhibition), isolate MMX 9867 (FLU-R, VORI-R)",2 µg/mL
same,MIC,"Candida auris; read-out: MIC0 (complete inhibition), isolate MMX 9868 (FLU-R, VORI-R)",4 µg/mL
same,MIC,"Candida auris; read-out: MIC0 (complete inhibition), isolate MMX 9869 (FLU-R, VORI-R)",4 µg/mL
same,MIC,"Candida auris; read-out: MIC0 (complete inhibition), isolate MMX 9870 (FLU-R, VORI-R)",2 µg/mL
same,MIC,"Candida auris; read-out: MIC0 (complete inhibition), isolate MMX 9871 (Susceptible)",2 µg/mL
same,MIC,"Candida auris; read-out: MIC2 (50% inhibition), isolate MMX 9862 (Susceptible)",0.5 µg/mL
same,MIC,"Candida auris; read-out: MIC2 (50% inhibition), isolate MMX 9863 (FLU-R, VORI-R)",1 µg/mL
same,MIC,"Candida auris; read-out: MIC2 (50% inhibition), isolate MMX 9864 (FLU-R, VORI-R), result after 48 hr incubation (insufficient growth at 24 hr)",1 µg/mL
same,MIC,"Candida auris; read-out: MIC2 (50% inhibition), isolate MMX 9865 (FLU-R, VORI-R)",1 µg/mL
same,MIC,"Candida auris; read-out: MIC2 (50% inhibition), isolate MMX 9866 (FLU-R, VORI-R)",1 µg/mL
same,MIC,"Candida auris; read-out: MIC2 (50% inhibition), isolate MMX 9867 (FLU-R, VORI-R)",1 µg/mL
same,MIC,"Candida auris; read-out: MIC2 (50% inhibition), isolate MMX 9868 (FLU-R, VORI-R)",1 µg/mL
same,MIC,"Candida auris; read-out: MIC2 (50% inhibition), isolate MMX 9869 (FLU-R, VORI-R)",1 µg/mL
same,MIC,"Candida auris; read-out: MIC2 (50% inhibition), isolate MMX 9870 (FLU-R, VORI-R)",1 µg/mL
same,MIC,"Candida auris; read-out: MIC2 (50% inhibition), isolate MMX 9871 (Susceptible)",1 µg/mL
same,MIC,A. niger,2 µg/mL
same,MIC,[3]; NRS1 / VISA,0.12 µg/mL
same,MIC,[3]; NRS2 / VISA,≤ 0.06 µg/mL
same,MIC,[3]; NRS3 / VISA,0.25 µg/mL
same,MIC,[3]; NRS4 / VISA,0.25 µg/mL
same,MIC,[3]; NRS13 / VISA,0.12 µg/mL
same,MIC,[3]; NRS18 / VISA,0.25 µg/mL
same,MIC,[3]; NRS22 / VISA,0.25 µg/mL
same,MIC,[3]; NRS24 / VISA,1 µg/mL
same,MIC,[3]; NRS27 / VISA,0.25 µg/mL

# Reference: patent US11464749B2, “Bismuth-thiol compositions and methods of use” (Microbion Corporation, priority 2018, dated 2022)
